Target: T1, beta-catenin-B-cell lymphoma 9 protein complex (Homo sapiens, UniProt P35222)
T1 sequence (P35222 whole entry): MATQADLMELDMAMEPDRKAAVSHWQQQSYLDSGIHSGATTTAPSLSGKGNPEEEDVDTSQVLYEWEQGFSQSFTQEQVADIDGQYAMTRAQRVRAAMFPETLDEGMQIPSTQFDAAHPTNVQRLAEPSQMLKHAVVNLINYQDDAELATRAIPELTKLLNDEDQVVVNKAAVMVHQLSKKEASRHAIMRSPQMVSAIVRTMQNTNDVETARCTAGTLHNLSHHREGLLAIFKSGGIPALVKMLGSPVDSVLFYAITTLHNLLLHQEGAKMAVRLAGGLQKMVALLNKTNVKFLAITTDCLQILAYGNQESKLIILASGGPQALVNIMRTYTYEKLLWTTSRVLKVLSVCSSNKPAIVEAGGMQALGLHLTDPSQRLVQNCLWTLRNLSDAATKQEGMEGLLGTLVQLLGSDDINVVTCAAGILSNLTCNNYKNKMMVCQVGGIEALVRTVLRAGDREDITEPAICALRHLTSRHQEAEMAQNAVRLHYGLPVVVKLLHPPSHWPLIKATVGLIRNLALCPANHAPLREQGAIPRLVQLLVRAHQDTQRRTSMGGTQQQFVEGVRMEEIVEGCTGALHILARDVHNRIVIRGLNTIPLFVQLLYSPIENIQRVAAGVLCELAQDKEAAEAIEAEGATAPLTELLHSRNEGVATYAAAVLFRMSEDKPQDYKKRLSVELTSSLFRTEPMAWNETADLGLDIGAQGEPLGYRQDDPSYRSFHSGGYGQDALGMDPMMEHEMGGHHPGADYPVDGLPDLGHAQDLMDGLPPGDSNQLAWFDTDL
T1 sequence (O00512 whole entry): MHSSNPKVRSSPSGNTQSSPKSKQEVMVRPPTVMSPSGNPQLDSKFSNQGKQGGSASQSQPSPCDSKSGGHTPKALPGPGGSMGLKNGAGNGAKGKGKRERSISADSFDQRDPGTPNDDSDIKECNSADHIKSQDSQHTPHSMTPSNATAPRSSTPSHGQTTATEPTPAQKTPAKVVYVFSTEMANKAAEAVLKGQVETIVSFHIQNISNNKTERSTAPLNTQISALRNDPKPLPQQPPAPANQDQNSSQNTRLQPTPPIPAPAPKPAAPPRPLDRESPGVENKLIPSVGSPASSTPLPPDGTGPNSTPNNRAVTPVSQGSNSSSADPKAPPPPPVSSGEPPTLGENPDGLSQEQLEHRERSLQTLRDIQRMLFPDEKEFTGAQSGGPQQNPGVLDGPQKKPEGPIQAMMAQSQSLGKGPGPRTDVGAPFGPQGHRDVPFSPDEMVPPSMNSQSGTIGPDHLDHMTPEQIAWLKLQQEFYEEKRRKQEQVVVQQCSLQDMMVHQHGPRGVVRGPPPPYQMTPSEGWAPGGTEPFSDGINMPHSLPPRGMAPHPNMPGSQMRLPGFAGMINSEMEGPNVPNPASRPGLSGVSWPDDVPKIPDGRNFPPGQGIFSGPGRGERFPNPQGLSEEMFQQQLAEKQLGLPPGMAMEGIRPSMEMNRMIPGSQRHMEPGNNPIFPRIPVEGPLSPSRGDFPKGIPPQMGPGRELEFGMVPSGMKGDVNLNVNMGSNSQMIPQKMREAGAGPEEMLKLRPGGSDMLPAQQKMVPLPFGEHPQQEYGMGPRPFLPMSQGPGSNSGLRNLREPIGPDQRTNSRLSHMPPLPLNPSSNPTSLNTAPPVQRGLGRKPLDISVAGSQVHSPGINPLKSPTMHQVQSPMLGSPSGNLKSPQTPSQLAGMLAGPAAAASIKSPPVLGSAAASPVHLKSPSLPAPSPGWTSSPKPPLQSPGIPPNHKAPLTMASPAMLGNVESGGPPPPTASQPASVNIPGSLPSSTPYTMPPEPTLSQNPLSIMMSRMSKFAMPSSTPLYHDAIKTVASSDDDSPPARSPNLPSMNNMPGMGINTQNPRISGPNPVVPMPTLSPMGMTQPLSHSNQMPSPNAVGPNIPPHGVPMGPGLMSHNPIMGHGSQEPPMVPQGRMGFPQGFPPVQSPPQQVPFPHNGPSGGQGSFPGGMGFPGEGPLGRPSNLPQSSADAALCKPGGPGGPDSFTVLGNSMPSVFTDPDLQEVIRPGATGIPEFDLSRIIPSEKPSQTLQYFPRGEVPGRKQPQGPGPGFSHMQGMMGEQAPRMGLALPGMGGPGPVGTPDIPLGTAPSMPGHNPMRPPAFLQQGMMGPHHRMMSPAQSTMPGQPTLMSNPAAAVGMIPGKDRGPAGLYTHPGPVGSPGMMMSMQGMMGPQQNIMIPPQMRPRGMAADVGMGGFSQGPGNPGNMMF
Assay: Inhibition of N-terminal 6-His-tagged beta-catenin (1 to 781 residues) (unknown origin) expressed in Escherichia coli BL21 (DE3)-N-terminal biotinylated human BCL9 (350 to 375 residues) protein-protein interaction incubated for 1 hr by Alphascreen assay
Conditions: not given

Row | Ki [µM] | SMILES
1 | 4.8 | CC(C)(Oc1cccc(N2CCC[C@@H](C(=O)N(Cc3ccc(C4CCCCC4)cc3)C3CC3)C2)c1)C(=O)N1CCNCC1
2 | 1.9 | CCOCCN(Cc1ccc(-c2cn[nH]c2)cc1)C(=O)[C@@H]1CCCN(c2cccc(OC(C)(C)C(=O)N3CCNCC3)c2)C1

Second part, the molecule before the results:

Row | SMILES | Ki [µM]
3 | CC(C)c1ccc(CN(C(=O)[C@@H]2CCCN(c3cccc(OC(C)(C)C(=O)N4CCNCC4)c3)C2)C(C)C)cc1 | 4.6
4 | CC(C)(Oc1cccc(N2CCC[C@@H](C(=O)N(Cc3ccc(-c4ccccc4)cc3)C3CC3)C2)c1)C(=O)N1CCNCC1 | 4
5 | CC(C)(Oc1cccc(N2CCC[C@@H](C(=O)N(Cc3ccc(-c4cn[nH]c4)cc3)C3CC3)C2)c1)C(=O)N1CCCCC1 | 43
6 | CN1CCN(C(=O)C(C)(C)Oc2cccc(N3CCC[C@@H](C(=O)N(Cc4ccc(-c5cn[nH]c5)cc4)C4CC4)C3)c2)CC1 | 32
7 | CC(C)(Oc1cccc(N2CCC[C@@H](C(=O)N(Cc3ccc(C(C)(C)C)cc3)C3CC3)C2)c1)C(=O)N1CCNCC1 | 13
8 | CC(C)c1ccc(CNC(=O)[C@H]2CCCN(c3cccc(OC(C)(C)C(=O)O)c3)C2)cc1 | > 90
9 | CC(C)(Oc1cccc(N2CCC[C@@H](C(=O)N(Cc3ccc(-c4ccncc4)cc3)C3CC3)C2)c1)C(=O)N1CCNCC1 | 74
10 | CC(C)c1ccc(CNC(=O)[C@@H]2CCCN(c3cccc(OC(C)(C)C(=O)O)c3)C2)cc1 | 46

System: not listed separately
Assay: Intrinsic clearance in human liver microsomes at 1 uM measured up to 60 mins in presence of NADPH by LC-MS/SM analysis
Format: ADME, Microsome
Conditions: not given

Row | CLint at 1 h, 1 µM [µL/min/mg] | SMILES
11 | 24 | CCN(Cc1ccc(-c2cn[nH]c2)cc1)C(=O)[C@@H]1CCCN(c2cccc(OC(C)(C)C(=O)N3CCNCC3)c2)C1.Cl

System: not listed separately
Assay: Half life in mouse liver microsomes at 1 uM measured up to 60 mins in presence of NADPH by LC-MS/SM analysis
Format: ADME, Microsome
Conditions: 1 h

Row | t1/2 [min] | SMILES
12 | 13 | CCN(CC)CCNC(=O)c1c(C)[nH]c(/C=C2\C(=O)Nc3ccc(F)cc32)c1C [SUNITINIB]
13 | 7.7 | CCN(Cc1ccc(-c2cn[nH]c2)cc1)C(=O)[C@@H]1CCCN(c2cccc(OC(C)(C)C(=O)N3CCNCC3)c2)C1.Cl

Target: T1, beta-catenin-B-cell lymphoma 9 protein complex
Assay: Inhibition of C-terminal 6-His-tagged beta-catenin (1 to 781 residues) (unknown origin) expressed in Escherichia coli BL21 (DE3)-N-terminal biotinylated human BCL9 (350 to 375 residues) protein-protein interaction incubated for 1 hr by Alphascreen assay
Conditions: not given

Row | IC50 [µM] | SMILES
14 | 5.3 | CC(C)(Oc1cccc(N2CCC[C@@H](C(=O)N(Cc3ccc(C4CCCCC4)cc3)C3CC3)C2)c1)C(=O)N1CCNCC1
15 | 2.1 | CCOCCN(Cc1ccc(-c2cn[nH]c2)cc1)C(=O)[C@@H]1CCCN(c2cccc(OC(C)(C)C(=O)N3CCNCC3)c2)C1

The remaining lines, values behind:

Row | SMILES | IC50 [µM]
16 | CC(C)c1ccc(CN(C(=O)[C@@H]2CCCN(c3cccc(OC(C)(C)C(=O)N4CCNCC4)c3)C2)C(C)C)cc1 | 5.1
17 | CC(C)(Oc1cccc(N2CCC[C@@H](C(=O)N(Cc3ccc(-c4ccccc4)cc3)C3CC3)C2)c1)C(=O)N1CCNCC1 | 4.5
18 | CC(C)(Oc1cccc(N2CCC[C@@H](C(=O)N(Cc3ccc(-c4cn[nH]c4)cc3)C3CC3)C2)c1)C(=O)N1CCCCC1 | 53
19 | CN1CCN(C(=O)C(C)(C)Oc2cccc(N3CCC[C@@H](C(=O)N(Cc4ccc(-c5cn[nH]c5)cc4)C4CC4)C3)c2)CC1 | 39
20 | CC(C)(Oc1cccc(N2CCC[C@@H](C(=O)N(Cc3ccc(C(C)(C)C)cc3)C3CC3)C2)c1)C(=O)N1CCNCC1 | 14
21 | CC(C)c1ccc(CNC(=O)[C@H]2CCCN(c3cccc(OC(C)(C)C(=O)O)c3)C2)cc1 | > 100
22 | CC(C)(Oc1cccc(N2CCC[C@@H](C(=O)N(Cc3ccc(-c4ccncc4)cc3)C3CC3)C2)c1)C(=O)N1CCNCC1 | 82
23 | CC(C)c1ccc(CNC(=O)[C@@H]2CCCN(c3cccc(OC(C)(C)C(=O)O)c3)C2)cc1 | 51

System: not listed separately
Assay: Half life in human liver microsomes at 1 uM measured up to 60 mins in presence of NADPH by LC-MS/SM analysis
Format: ADME, Microsome
Conditions: 1 h

Row | t1/2 [min] | SMILES
24 | 28.3 | CCN(Cc1ccc(-c2cn[nH]c2)cc1)C(=O)[C@@H]1CCCN(c2cccc(OC(C)(C)C(=O)N3CCNCC3)c2)C1.Cl

Target: T2, Catenin beta-1 (Homo sapiens, UniProt P35222)
T2 sequence (P35222 whole entry): T1 sequence (P35222 whole entry)
Assay: Inhibition of beta-catenin (unknown origin) transfected in HEK293 cells cotransfected with pCMV-RL assessed as reduction in luciferase activity measured after 24 hrs by TOPFlash luciferase reporter assay
Format: cell-based
Conditions: not given

Row | IC50 [µM] | SMILES
25 | > 200 | CN1CCN(C(=O)C(C)(C)Oc2cccc(N3CCC[C@@H](C(=O)N(Cc4ccc(-c5cn[nH]c5)cc4)C4CC4)C3)c2)CC1

System: not listed separately
Assay: Intrinsic clearance in mouse liver microsomes at 1 uM measured up to 60 mins in presence of NADPH by LC-MS/SM analysis
Format: ADME, Microsome
Conditions: 1 h

Row | CLint [µL/min/mg] | SMILES
26 | 53 | CCN(CC)CCNC(=O)c1c(C)[nH]c(/C=C2\C(=O)Nc3ccc(F)cc32)c1C [SUNITINIB]
27 | 90 | CCN(Cc1ccc(-c2cn[nH]c2)cc1)C(=O)[C@@H]1CCCN(c2cccc(OC(C)(C)C(=O)N3CCNCC3)c2)C1.Cl

— ChEMBL document CHEMBL4840323, “Discovery of an Orally Bioavailable Small-Molecule Inhibitor for the β-Catenin/B-Cell Lymphoma 9 Protein-Protein Interaction” (J Med Chem, 2021)
